# Assay results: ChEMBL document CHEMBL5543153, “Discovery of a Potent Dual Son of Sevenless 1 (SOS1) and Epidermal Growth Factor Receptor (EGFR) Inhibitor for the Treatment of Prostate Cancer” (J Med Chem, 2024)
# The source made the active and inactive calls. The rule behind the calls is not given here.
# Columns and labels:
# [1] = molecular target: T1, Son of sevenless homolog 1 (Homo sapiens) (UniProt Q07889); experiment: Inhibition of SOS1 in human PC-3 cells assessed as downregulation of AKT phosphorylation at 0.5 uM incubated for 15 mins by Western blotting analysis; type: cell-based
# T1 sequence (whole entry): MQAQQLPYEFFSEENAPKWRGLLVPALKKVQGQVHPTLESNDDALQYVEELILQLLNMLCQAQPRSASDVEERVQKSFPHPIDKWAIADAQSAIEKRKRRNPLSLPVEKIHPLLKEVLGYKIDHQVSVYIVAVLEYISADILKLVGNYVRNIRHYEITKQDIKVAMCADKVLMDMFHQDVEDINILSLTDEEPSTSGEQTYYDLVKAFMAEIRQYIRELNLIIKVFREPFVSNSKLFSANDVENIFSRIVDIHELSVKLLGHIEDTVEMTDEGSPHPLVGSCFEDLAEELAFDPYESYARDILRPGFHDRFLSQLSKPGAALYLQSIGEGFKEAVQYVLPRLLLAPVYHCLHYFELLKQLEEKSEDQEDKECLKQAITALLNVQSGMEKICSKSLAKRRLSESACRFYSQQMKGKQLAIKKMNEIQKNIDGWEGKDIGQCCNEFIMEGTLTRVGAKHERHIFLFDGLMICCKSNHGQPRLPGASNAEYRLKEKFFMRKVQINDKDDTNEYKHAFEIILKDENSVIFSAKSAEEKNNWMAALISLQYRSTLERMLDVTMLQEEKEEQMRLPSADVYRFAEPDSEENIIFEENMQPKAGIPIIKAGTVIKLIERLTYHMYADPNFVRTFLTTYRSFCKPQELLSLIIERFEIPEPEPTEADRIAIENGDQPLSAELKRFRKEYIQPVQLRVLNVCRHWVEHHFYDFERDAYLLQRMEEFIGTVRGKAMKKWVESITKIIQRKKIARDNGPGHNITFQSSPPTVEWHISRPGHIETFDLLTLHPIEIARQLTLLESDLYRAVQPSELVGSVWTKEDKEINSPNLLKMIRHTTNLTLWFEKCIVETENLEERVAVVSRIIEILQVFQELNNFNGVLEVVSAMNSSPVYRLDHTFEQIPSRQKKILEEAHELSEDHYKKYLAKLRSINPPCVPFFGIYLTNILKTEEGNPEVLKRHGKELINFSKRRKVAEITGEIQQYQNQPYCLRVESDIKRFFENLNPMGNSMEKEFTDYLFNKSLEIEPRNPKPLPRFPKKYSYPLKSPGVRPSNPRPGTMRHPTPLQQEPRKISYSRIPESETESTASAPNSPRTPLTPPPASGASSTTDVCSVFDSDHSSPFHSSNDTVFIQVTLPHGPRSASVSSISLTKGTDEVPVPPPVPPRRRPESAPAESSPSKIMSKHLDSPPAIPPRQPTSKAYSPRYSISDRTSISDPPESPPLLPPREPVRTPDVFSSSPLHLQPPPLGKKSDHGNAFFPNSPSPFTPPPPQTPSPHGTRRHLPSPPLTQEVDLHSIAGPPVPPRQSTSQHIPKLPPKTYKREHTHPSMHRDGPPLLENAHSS
# PC-3 [2] = experiment: Induction of apoptosis in human PC-3 cells assessed as upregulation of cleaved PARP expression by Western blotting analysis; type: functional, cell-based
# PC-3 [3] = experiment: Inhibition of colony formation in human PC-3 cells incubated for 15 days by crystal violet staining based microscopic analysis; type: functional, cell-based; details: time 15.0 day
# PC-3 [4] = experiment: Antiproliferative activity against human PC-3 cells assessed as reduction in EdU-positive cells at 0.5 to 12.5 uM incubated for 48 hrs by EdU incorporation assay; type: functional, cell-based; details: dose 0.5-12.5 µM
# PC-3 [5] = experiment: Induction of cell cycle arrest in human PC-3 cells assessed as accumulation of cells at G1 phase at 0.5 uM by PI staining based flow cytometry (reference value: 75.66%); type: functional
# PC-3 [6] = experiment: Induction of cell cycle arrest in human PC-3 cells assessed as downregulation of cyclin D1 expression by Western blotting analysis; type: functional, cell-based
# [7] = Toxicity in BALB/c mouse xenografted with human PC-3 cells assessed as heart pathological change at 5 mg/kg,ip administrated once every 4 days for 24 days by hematoxylin and eosin staining based analysis; type: organism-based; details: in vivo, 576 h, time 24 day
compound,measurement,setting,value
COc1cc2ncnc(N[C@H](C)c3cccc(F)c3)c2cc1OC1CCOCC1,inhibition,[1],Active
same,Activity,PC-3 [2],Dose-Dependent Effect
same,inhibition,PC-3 [3],Dose-Dependent Effect
same,Activity,PC-3 [4],Active
same,Activity,PC-3 [5],79.45%
same,Activity,PC-3 [6],Dose-Dependent Effect
same,Activity,[7],Toxic
